Experiments:
[1] = Lipid nanoparticle size and polydispersity by dynamic light scattering; type: physicochemical; conditions: LNP of lipid/DSPC/cholesterol/PEG-lipid 50:10:38.5:1.5 encapsulating hEPO mRNA
Protocol: (§1) Briefly, a cationic lipid provided herein, DSPC, cholesterol, and PEG-lipid were solubilized in ethanol at a molar ratio of 50:10:38.5:1.5, and mRNA were diluted in 10 to 50 mM citrate buffer, pH=4. The LNPs were prepared at a total lipid to mRNA weight ratio of approximately 10:1 to 30:1 by mixing the ethanolic lipid solution with the aqueous mRNA solution at a volume ratio of 1:3 using a microfluidic apparatus, total flow rate ranging from 9-30 mL/min. Ethanol were thereby removed and replaced by DPBS using dialysis. Finally, the lipid nanoparticles were filtered through a […] sterile filter.
(§2) Lipid nanoparticle size were determined by dynamic light scattering using a Malvern Zetasizer Nano ZS (Malvern UK) using a […] backscatter detection mode. The encapsulation efficiency of lipid nanoparticles were determined using a Quant-it Ribogreen RNA quantification assay kit (Thermo Fisher Scientific, UK) according to the manufacturer's instructions.

[2] = Encapsulation efficiency of lipid nanoparticles, Quant-it Ribogreen RNA assay; type: physicochemical; conditions: LNP of lipid/DSPC/cholesterol/PEG-lipid 50:10:38.5:1.5 encapsulating hEPO mRNA
Protocol: as §1, §2

Structure (SMILES)	polydispersity [1]	size (nm) [1] [nm]	Encapsulation Efficiency [2] [%]
CCCCCCCCCCCCC(O)CN(CCCCCC(=O)OCC(CCCCCC)CCCCCCCC)CCN(CCCCCC(=O)OCCCCCCCCCCC)C1CCC1 (stereo not drawn) [Compound 2]	0.066	64.03	86.6
CCCCCCCCCCCOC(=O)CCCCCN(CCN(CCO)CCCCCC(=O)OCC(CCCCCC)CCCCCCCC)C1CCCCC1 (stereo not drawn) [Compound 6]	0.089	101.6	87.7
CCCCCCCCC(CCCCCC)COC(=O)CCCCCN(CCO)CCN(CCCCCC(=O)OCC(CCCCCC)CCCCCCCC)C1CC1 (stereo not drawn) [Compound 9]	0.181	55.12	93.9
CCCCCCCCC(CCCCCCCC)CNC(=O)CCCCCN(CCO)CCN(CCCCCC(=O)NCC(CCCCCCCC)CCCCCCCC)C1CCC1 [Compound 11]	0.055	66.15	82.8
CCCCCCCCC(CCCCCCCC)CNC(=O)CCCCCN(CCO)CCN(CCCCCC(=O)NCC(CCCCCCCC)CCCCCCCC)C1CCCCCC1 [Compound 14]	0.118	60.06	89.8
CCCCCCCCCCCCCCOCC(CN(CCN(CCO)CCCCCC(=O)OCC(CCCCCCCC)CCCCCCCC)C1CCC1)OCCCCCCCC (stereo not drawn) [Compound 20]	0.015	74.98	95.8
CCCCCCCCCCCOC(=O)CCCCCN(CCN(CCO)CCCCCC(=O)OCC(CCCCCCC)CCCCCCC)C1CCCCC1 [Compound 22]	0.047	87.7	95.5
CCCCCCCCCCCOC(=O)CCCCCN(CCN(CCO)CCCCCC(=O)NCC(CCCCCCCC)CCCCCCCC)C1CCCCC1 [Compound 44]	0.081	77.48	92.6
CCCCCCCCCCCC(=O)OCCCCCN(CCN(CCO)CCCCCNC(=O)CC(CCCCCCCC)CCCCCCCC)C1CCCCC1 [Compound 59]	0.063	70.3	95.1
CCCCCCCCC(CCCCCC)C(=O)OCCCCCCN(CCO)CCN(CCCCCCOC(=O)C(CCCCCC)CCCCCCCC)C1CCC1 (stereo not drawn) [Compound 69]	0.096	60.99	88.86
CCCCCCCCC(CCCCCCCC)CC(=O)NCCCCCN(CCN(CCO)CCCCCOC(=O)CC(CCCCCCCC)CCCCCCCC)C1CCCCCCC1 [Compound 75]	0.037	76.62	92.59
CCCCCCCCC(CCCCCCCC)COC(=O)CCCCCN(CCO)Cc1ccc(CN(CCCCCC(=O)OCC(CCCCCCCC)CCCCCCCC)C2CCC2)cc1 [Compound 88]	0.080	71.00	92.56
CCCCCCCCCCCOC(=O)CCCCCN(CCN(CCO)CCCCCC(=O)N(CCCCCCCC)CCCCCCCC)C1CCCCC1 [Compound 90]	0.030	101.70	82.56
CCCCCCCCCCCC(=O)OCCCCCN(CCN(CCO)CCCCCOC(=O)CC(CCCCCCCC)CCCCCCCC)C1CCCC1 [Compound 93]	0.064	76.12	92.84
CCCCCCCCCCCC(=O)OCCCCCN(CCN(CCO)CCOCCOC(=O)CC(CCCCCCCC)CCCCCCCC)C1CCCCC1 [Compound 98]	0.042	91.85	89.31
CCCCCCCCCCCOC(=O)CCCCCN(CCN(CCO)CCCCCNP(=O)(OCCCCCCCCC)OCCCCCCCCC)C1CCCCC1 [Compound 100]	0.085	93.16	85.49
CCCCCCCCCCCCCCCCOC(=O)CCCCCN(CCN(CCO)CCCCCC(=O)OCC(CCCCCCCC)CCCCCCCC)C1CCCCC1 [Compound 104]	0.044	66.62	92.43
CCCCCCCCCCCOC(=O)CCCCCN(CCN(CCO)CCCCCC(=O)OCC(CCCCCCCC)CCCCCCCC)C1CCC1 [Compound 106]	0.067	67.63	92.14
CCCCC/C=C\C/C=C\CCCCCCCC(=O)OCCCCCN(CCN(CCO)CCCCCC(=O)OCC(CCCCCCCC)CCCCCCCC)C1CCCCC1 [Compound 108]	0.068	67.69	91.83
CCCCCCCCCCCOC(=O)CCCCCN(CCN(CCO)CCOCCC(=O)OCC(CCCCCCCC)CCCCCCCC)C1CCC1 [Compound 114]	0.044	81.25	90.35

Structure (SMILES)	polydispersity [1]	size (nm) [1] [nm]	Encapsulation Efficiency [2] [%]
CCCCCCCCCCCOC(=O)CCCCCN(CCN(CCO)CCOCCC(=O)OCC(CCCCCCCC)CCCCCCCC)C1CCCCC1 [Compound 115]	0.058	97.51	90.22
CCCCCCCCCCCOC(=O)CCOCCN(CCN(CCO)CCOCCC(=O)OCC(CCCCCCCC)CCCCCCCC)C1CCCCC1 [Compound 117]	0.050	79.67	89.34
CCCCCCCCCCCOC(=O)CCCCCN(CC=C(C)C)CCN(CCO)CCCCCC(=O)OCC(CCCCCCCC)CCCCCCCC [Compound 119]	0.087	69.75	92.21
CCCCCCCCCCCOC(=O)CCCCCN(CC=C(C)C)CCN(CCCCCC(=O)OCC(CCCCCCCC)CCCCCCCC)C1CCC(O)CC1 (stereo not drawn) [Compound 125]	0.035	90.98	92.89
CCCCCCCCCCCOC(=O)CCCCCN(CCN(CCO)CCCCCC(=O)OCC(CCCCCCCC)CCCCCCCC)C1CC1 [Compound 129]	0.069	58.08	90.52
CCCCCCCCCCCOC(=O)CCCCCN(CCN(CCO)CCCCCC(=O)OCC(CCCCCCCC)CCCCCCCC)C1CCCC1 [Compound 130]	0.060	76.86	91.06
CCCCCCCCC(CCCCCC)COC(=O)CCCCCN(CCO)CCN(CCCCC(COC(=O)CCCCCCC)COC(=O)CCCCCCC)C1CCC1 (stereo not drawn) [Compound 135]	0.035	124.60	87.16
CCCCCCCCC(CCCCCC)CNC(=O)CCCCCN(CCO)CCN(CCCCC(COC(=O)CCCCCCC)COC(=O)CCCCCCC)C1CCCC1 (stereo not drawn) [Compound 138]	0.107	81.24	90.03
CCCCCCCCC(CCCCCC)COC(=O)CCCCCN(CCO)CCN(CCCCC(COC(=O)CCCCCCC)COC(=O)CCCCCCC)C1CCCCC1 (stereo not drawn) [Compound 139]	0.076	59.97	87.81
CCCCCCCCC(CCCCCC)CNC(=O)CCCCCN(CCO)CCN(CCCCC(COC(=O)CCCCCCC)COC(=O)CCCCCCC)C1CCCCC1 (stereo not drawn) [Compound 140]	0.051	71.01	89.74
CCCCCCCCC(CCCCCC)CNC(=O)CCCCCN(CCO)CCN(CCCCC(COC(=O)CCCCCCC)COC(=O)CCCCCCC)C1CCCCCCC1 (stereo not drawn) [Compound 145]	0.047	68.91	88.63
CCCCCCCCC(CCCCCC)COC(=O)CCCCCN(CC=C(C)C)CCN(CCO)CCCCC(COC(=O)CCCCCCC)COC(=O)CCCCCCC (stereo not drawn) [Compound 148]	0.081	64.31	90.40
CCCCCCCCC(CCCCCC)CNC(=O)CCCCCN(CC=C(C)C)CCN(CCO)CCCCC(COC(=O)CCCCCCC)COC(=O)CCCCCCC (stereo not drawn) [Compound 149]	0.043	78.75	92.71
CCCCCCCCC(CCCCCC)COC(=O)CCCCCN(C)CCN(CCO)CCCCC(COC(=O)CCCCCCC)COC(=O)CCCCCCC (stereo not drawn) [Compound 156]	0.190	73.36	89.69
CCCCCCCCC(CCCCCC)CNC(=O)CCCCCN(C)CCN(CCO)CCCCC(COC(=O)CCCCCCC)COC(=O)CCCCCCC (stereo not drawn) [Compound 158]	0.058	63.54	89.17
CCCCCCCCC(CCCCCC)CNC(=O)CCCCCN(CC)CCN(CCO)CCCCC(COC(=O)CCCCCCC)COC(=O)CCCCCCC (stereo not drawn) [Compound 159]	0.080	77.72	90.71
CCCCCCCC(=O)OCC(CCCCN(CCO)CCN(CCCCC(COC(=O)CCCCCCC)COC(=O)CCCCCCC)C1CCCCCC1)COC(=O)CCCCCCC [Compound 160]	0.096	86.16	86.18
CCCCCCCC(=O)OCC(CCCCN(CC=C(C)C)CCN(CCO)CCCCC(COC(=O)CCCCCCC)COC(=O)CCCCCCC)COC(=O)CCCCCCC [Compound 162]	0.068	82.68	85.46
CCCCCCCCCC(=O)OCC(CCCCN(CCO)CCN(CCCCC(COC(=O)CCCCCCCCC)COC(=O)CCCCCCCCC)C1CCC1)COC(=O)CCCCCCCCC [Compound 167]	0.128	69.47	91.97

Source: patent publication US20230348362A1, “LIPID COMPOUNDS AND LIPID NANOPARTICLE COMPOSITIONS” (Suzhou Abogen Biosciences Co., Ltd., priority 2021, published 2023)
